This is an account of results in publication PMC11355573, “A New Renieramycin T Right-Half Analog as a Small Molecule Degrader of STAT3” (Marine Drugs, 2024).

The test system of assay [1] is EMT markers (ZO1, ZEB1, Slug, Snail, N-cadherin, Vimentin) in H460 cells. Put plainly: Immunofluorescence staining of EMT markers. Type of assay: cell-based, human. From the text: (§1) EMT is a biological process that is associated with cancer progression and the spread of cancer cells to other parts of the body. This mechanism facilitates the motility of cancer cells, enhances anoikis resistance, and contributes to poor prognosis due to its high metastatic potential. Given the critical role of EMT in the metastasis processes, we firstly investigated EMT markers. Therefore, to validate that DH_31 inhibits metastasis, H460 cells were selected to elucidate the mechanism because of their enhanced migration and invasion behavior [36]. H460 cells were exposed to the non-toxic concentration range of 0–2.5 µM of DH_31 for 24 h. Subsequently, the evaluation of EMT expression levels was carried out through the application of immunofluorescence assay and Western blotting. We further investigated key hallmarks of EMT, specifically the reduction in the expression levels of epithelial marker (ZO1) and the increase in the expression levels of mesenchymal markers (Slug, Snail, ZEB1, N-cadherin, and Vimentin). […] The expressions of Snail, N-cadherin, and Vimentin were reduced in a concentration-dependent manner. […] Furthermore, the results from the Western blot analysis confirmed the findings from immunofluorescence staining (Figure 3C). […] The protein alterations in response to DH_31 were clarified.
(§2) Immunofluorescence staining and confocal microscopy were conducted to visualize the subcellular localization and spatial distribution of specific proteins. H460 cells (1.0 × 10^4 cells per well) were seeded in 96-well plates. Following overnight incubation, the cells were treated with different concentrations of DH_31 (0–2.5 μM) for 24 h at 37 °C. After treatment, the cells were permeabilized with 0.5% Triton-X in PBS for 5 min, followed by the blocking of non-specific proteins with 10% FBS in 0.1% Triton-X PBS for 1 h at room temperature. Subsequently, the cells were exposed to primary antibodies (STAT3, Slug, Snail, Vimentin, N-cadherin, ZO1, and ZEB1) and incubated at 4 °C overnight. The cells were then incubated with Alexa Fluor 488- or 594-conjugated secondary antibodies and Hoechst 33342 for 1 h at room temperature. After washing with PBS, the cells were covered with 50% glycerol. The images were captured by confocal microscopy (Zeiss, Jena, Germany). The fluorescence intensity was measured using ImageJ™ software (Image J 1.52a, Rasband, W., National Institutes of Health, Bethesda, MD, USA).

The subject of assay [2] is EMT markers (ZO1, Slug, Snail, N-cadherin, Vimentin) in H460 cells. The assay is described as follows: Western blot of EMT markers. Type of assay: cell-based, human.
Description: as §1
Western blot analysis was performed to detect and quantify specific proteins in a sample. H460 cells (4.0 × 10^5 cells per well) were seeded in 6 well plates. Following overnight incubation, the cells were treated with different concentrations of DH_31 (0–2.5 μM) for 24 h at 37 °C. After treatment, the cell lysates were isolated using a 1 × RIPA buffer containing a protease inhibitor cocktail for 45 min at 4 °C. The protein content was determined using the BCA protein assay kit. For the Western blot assay, an equal amount of the denatured proteins from cell lysates was separated by electrophoresis on 10 or 12% SDS-PAGE and transferred to 0.2 µm polyvinylidene difluoride (PVDF) membranes (Bio-Rad Laboratories, Hercules, CA, USA). After the membranes were blocked with 5% skim milk, they were then incubated overnight with specific primary antibodies at 4 °C. Subsequently, the membranes were incubated with HRP-conjugated secondary antibodies for 1 h at room temperature. Protein bands were visualized using SuperSignal^TM West Pico PLUS Chemiluminescent Substrate. The protein intensity was analyzed using ImageJ™ software (Image J 1.52a, Rasband, W., National Institutes of Health, Bethesda, MD, USA).

The next assay addresses T1, STAT3 (Homo sapiens, UniProt P40763).
T1 construct: endogenous in cells; host or cells: NCI-H460 (ATCC HTB-177)
Put plainly: STAT3 immunofluorescence and confocal microscopy. The assay is classed as cell-based. As to conditions: H460, 2.5 µM, 24 h (p < 0.001). The protocol: To explore whether DH_31 could suppress STAT3, H460 cells were treated with 1 and 2.5 μM of DH_31 for 24 h. Immunofluorescence and confocal microscopy were performed to visualize STAT3 expression.
as §2

T1 sequence (P40763 whole entry): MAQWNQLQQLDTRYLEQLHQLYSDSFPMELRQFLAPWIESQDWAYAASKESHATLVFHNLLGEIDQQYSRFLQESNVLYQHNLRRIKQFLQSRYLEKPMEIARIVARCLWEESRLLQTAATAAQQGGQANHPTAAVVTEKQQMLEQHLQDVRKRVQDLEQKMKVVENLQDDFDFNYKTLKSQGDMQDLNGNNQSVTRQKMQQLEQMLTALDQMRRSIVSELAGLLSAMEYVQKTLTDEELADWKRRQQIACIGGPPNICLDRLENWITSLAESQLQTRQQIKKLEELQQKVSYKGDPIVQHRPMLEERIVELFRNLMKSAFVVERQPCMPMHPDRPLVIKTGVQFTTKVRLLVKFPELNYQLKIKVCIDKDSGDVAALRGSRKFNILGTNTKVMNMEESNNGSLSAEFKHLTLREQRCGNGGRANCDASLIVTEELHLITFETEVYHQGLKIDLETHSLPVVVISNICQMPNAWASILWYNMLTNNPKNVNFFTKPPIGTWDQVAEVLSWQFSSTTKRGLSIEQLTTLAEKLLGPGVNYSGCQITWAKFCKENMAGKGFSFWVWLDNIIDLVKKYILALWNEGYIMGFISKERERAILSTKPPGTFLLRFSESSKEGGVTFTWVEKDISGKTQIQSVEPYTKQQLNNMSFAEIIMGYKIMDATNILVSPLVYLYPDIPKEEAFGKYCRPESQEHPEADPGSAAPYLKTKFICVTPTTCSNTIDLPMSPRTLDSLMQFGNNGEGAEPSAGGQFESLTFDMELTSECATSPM

Take `COc1c(C)cc2c(c1O)[C@@H]1CN(Cc3ccc4ccccc4c3)[C@@H](C#N)[C@H](C2)N1C` [DH_31, (1R,4R,5S)-10-hydroxy-9-methoxy-8,11-dimethyl-3-(naphthalen-2-ylmethyl)-1,2,3,4,5,6-hexahydro-1,5-epiminobenzo[d]azocine-4-carbonitrile]: the “ZO1 level (immunofluorescence)” value in assay [1] (H460, 0–2.5 µM, 24 h) is recorded as “slightly increased”. For the same compound, the “Vimentin level (immunofluorescence)” value in assay [1] (H460, 1 μM (p < 0.01) and 2.5 μM (p < 0.001), 24 h) is on record as “significant reduction”. In assay [1] (H460, 1 μM (p < 0.05) and 2.5 μM (p < 0.001), 24 h), the “N-cadherin level (immunofluorescence)” value is “significant reduction”. Moreover, in assay [1] (H460, 1 μM and 2.5 μM, 24 h (p < 0.05)), the “Snail level (immunofluorescence)” value is “significant reduction”. For the same compound, in assay [1] (H460, 2.5 µM, 24 h (p < 0.05)), the “Slug protein level (immunofluorescence)” value was “significant decrease” and the “ZEB1 protein level (immunofluorescence)” value was “significant decrease”. Further, the “Snail expression (Western blot)” value in assay [2] (H460, 1 µM (p < 0.05) and 2.5 µM (p < 0.01), 24 h) is given as “reduced”. In assay [2] (H460, 2.5 µM, 24 h (p < 0.05)), the “N-cadherin expression (Western blot)” value is given as “reductions”, the “Slug expression (Western blot)” value was “reductions” and the “Vimentin expression (Western blot)” value was “reductions”. For the same compound, the “STAT3 expression (immunofluorescence)” value on STAT3 is reported as “significant reduction”.
